Assay results as given in patent publication US20080311126A1, “Antisense Oligonucleotides Directed to Ribonucleotide Reducatase R2 and Uses Thereof in Combination Therapies for the Treatment of Cancer” (Genesense Technologies, Inc, priority 2004, published 2008).
Entries after “also recorded” stand apart in the source; their conditions may differ.

Columns and labels:
[1] = tested on: HT-29 human colon cancer cells; experiment: HT-29 colon tumour xenograft in CD-1 nude mice; format: in vivo
Method: HT-29 human colon cancer cells (3×10^6 cells in 100 μl of PBS) were subcutaneously injected into the right flank of 6-7 weeks old female CD-1 nude mice. After the size of tumour reached an approximate volume of 50 mm^3, 4 days post tumour cell injection, mitomycin C was administered by bolus infusion into the tail vein at days 4, 11 and 18 with a dose of 3.5 mg/kg/week. Antitumour effect of mitomycin C was further compared to that of SEQ ID NO:1 in combination with mitomycin C. SEQ ID NO:1 was administered by bolus infusion into the tail vein every day at 6 mg/kg and mitomycin C was administered intravenously at days 4, 11 and 18 with a dose of 3.5 mg/kg/week, one hour after the treatments with SEQ ID NO:1. Control animals received saline alone for the same period as SEQ ID NO:1. All treatments were stopped at day 22. A day after the last treatment, tumours were excised from the animals and their weights were measured.
HT-29 human colon cancer cells (3×10^6 cells in 100 μl of PBS) were subcutaneously injected into the right flank of 5-6 week old female CD-1 nude mice. After the size of tumour reached an approximate volume of 100 mm^3, 7 days post tumour cell injection, SEQ ID NO:1 was administered by bolus infusion into the tail vein every other day at 10 mg/kg. Control animals received saline alone for the same period. Antitumour effect of SEQ ID NO:1 was further compared to that of CPT-11 alone or that of SEQ ID NO:1 in combination with CPT-11. CPT-11 was administered intraperitoneally for 5 days in a row from […] with a dose of 20 mg/kg in 100 μl saline. All treatments were stopped at day 32. A day after the last treatment, tumours were excised from the animals and their weights were measured.
HT-29 human colon cancer cells (3×10^6 cells in 100 μl of PBS) were subcutaneously injected into the right flank of 6-7 week old female CD-1 nude mice. Treatments started at day 5 post tumour cell injection, SEQ ID NO:1 and 5-FU were administered as outlined below: • Groups and treatment: • Group 1. Saline treated group: saline:0.1 ml/2 days, i.v.; • Group 2. SEQ ID NO:1 treated group: 10 mg/kg/2 days in 100 μL saline, i.v.; • Group 3. 5-FU treated group:13 mg/kg/5 days/week (one week on and one week off), i.v.; • Group 4. SEQ ID NO:1 plus 5-FU treated group.
HT-29 human colon cancer cells (3×10^6 cells in 100 μl of PBS) were subcutaneously injected into the right flank of 5-6 week old female CD-1 nude mice. Treatments started 4 days post tumour cell injection, SEQ ID NO: 1 and Capecitabine were administered as outlined below: • Group and Treatment: • Group 1: treated with 0.2 ml vehicle solution for capecitabine, o.p.; • Group 2: treated with 0.1 ml saline, i.v.; • Group 3: treated with 359 mg/kg/day×5/w Capecitabine in 0.2 ml vehicle solution, o.p.; • Group 4: treated with 10 mg/kg/2 days SEQ ID NO:1 in 0.1 ml saline i.v.; • Group 5: treated with 10 mg/kg/2 days SEQ ID NO:1 in 0.1 ml saline, i.v. plus 359 mg/kg/day×5/w capecitabine in 0.2 ml vehicle solution, o.p.

[2] = tested on: A498 human renal carcinoma; experiment: A498 renal tumour xenograft in SCID mice, SEQ ID NO:1 and interferon alpha; format: in vivo
Method: Cell line: Human renal carcinoma cell line (A498) was grown as monolayer culture in Minimum essential medium (α-MEM) supplemented with 10% fetal bovine serum (FBS), 0.1 mM non-essential amino acid, 1.0 mM sodium pyruvate, 100 U/ml penicillin, 100 μg/ml streptomycin and 0.25 μg/ml amphotericin B and 2 mM L-alanyl-1-glutamine at 37° C. in an atmosphere of 5% CO2 in air. The tumour cells were routinely subcultured twice weekly by trypsin-EDTA treatment. The cells were harvested from subconfluent logarithmically growing culture by treatment with trypsin-EDTA and counted for tumour inoculation.
Tumour Inoculation: An acclimation period of at least 7 days was allowed between animal receipt and commencement of tumour inoculation. When the female SCID mice were 6-7 weeks of age (20-25 g), each mouse was subcutaneously injected with 9×10^6 A498 human renal carcinoma cells in 0.1 ml of PBS at the right flank of the mice to induce tumour growth.
Dose Preparation and Treatment: The dose for SEQ ID NO:1 was formulated using the following procedure. From a concentrated stock solution (usually prepared in ddH2O at a concentration of 50 mg/ml and kept at −80° C.), SEQ ID NO:1 was diluted with saline to achieve a final target concentration of 1 or 2.5 mg/ml on the first day of dosing. Enough SEQ ID NO:1 was diluted so that the compound could be administered by bolus infusion into the tail vein every other day for the duration of the experiment. Recombinant interferon alfa-2b (ntron A™) was employed according to the dose and treatment schedules below. The treatments were started 20 days after the tumour cell inoculation when the tumour size reached an approximate volume of 200 mm^3. Each treatment group contained 10 tumour-bearing mice. Routes of administration are as follows: intravenous (i.v.) and intratumoural (i.t.).
• 1. Saline treated group-1: saline 0.1 ml/mouse/48 hours, i.v., n=10 • 2. Saline treated group-2: saline 0.05 ml/mouse/5 days/week, i.t., n=10 • 3. SEQ ID NO:1 treated group: 1 mg/kg/48 hours in 0.1 ml saline, i.v. n=10 • 4. SEQ ID NO:1 treated group: 2.5 mg/kg/48 hours in 0.1 ml saline, i.v., n=10 • 5. […]
Treatment started from day 20 after inoculation of human renal tumour cells. […]
Endpoints: The effects of SEQ ID NO:1 and Intron A on tumour growth was determined. Tumour sizes were measured every week from day 20 after the tumour cell inoculation in two dimensions using a caliper, and the volume was expressed in mm^3 using the formula: V=0.5 a×b^2, where a and b are the long and short diameters of the tumour, respectively. Mean tumour volumes calculated from each measurement were then plotted in a standard graph to compare the anti-tumour efficacy to that of controls. A day after the last treatment, tumours were excised from the animals and their weights were measured. […]

With “GGCTAAATCGCTCCACCAAG (chemistry not given here) [SEQ ID NO: 1, antisense oligonucleotide that hybridizes to the coding region of human ribonucleotide reductase R2 mRNA]” the “antitumour effect (tumour weight)” value ([1]; Example 12.2, SEQ ID NO:1 10 mg/kg every other day i.v., CPT-11 20 mg/kg i.p. 5 days) was “significant delay of tumour growth; also recorded: superior to the inhibitory effects observed with CPT-11 alone”, the “Tumour weight as % of saline control” value ([1]; HT-29 (colon), Mouse CD-1, CPT-11 study) was 19% and the “anti-tumour efficacy (tumour volume, tumour weight)” value ([2]; Example 6, SEQ ID NO:1 1 or 2.5 mg/kg/48 hours i.v., Intron A 10^3 or 10^5 unit 5 days/week i.t.) was “significant anti-tumour efficacy”. The “anti-tumour efficacy (tumour volume, tumour weight)” value ([2]; Example 7, SEQ ID NO:1 2.5 mg/kg/2ds i.v., 10000 units Intron A x5/week for 2 weeks i.t.) was “significant anti-tumour efficacy”.
